Data from patent US20050222200A1, “AMIDE DERIVATIVES AS ION CHANNEL LIGANDS AND PHARMACEUTICAL COMPOSITIONS AND METHODS OF USING THE SAME” (Renovis, Inc., priority 2003, published 2005).

Target: T1, VR1 (Homo sapiens, UniProt Q8NER1)
T1 construct: expressed in transfected cells; host or cells: 293 cells ("293 neurons" [sic])
Experiment: High throughput calcium imaging assay of VR1 antagonists (Fura2, Flex Station, 96 well); note: test concentration or dose not given here
Type: cell-based
Settings: Table 1 activity class

T1 sequence (Q8NER1 whole entry, species assumed): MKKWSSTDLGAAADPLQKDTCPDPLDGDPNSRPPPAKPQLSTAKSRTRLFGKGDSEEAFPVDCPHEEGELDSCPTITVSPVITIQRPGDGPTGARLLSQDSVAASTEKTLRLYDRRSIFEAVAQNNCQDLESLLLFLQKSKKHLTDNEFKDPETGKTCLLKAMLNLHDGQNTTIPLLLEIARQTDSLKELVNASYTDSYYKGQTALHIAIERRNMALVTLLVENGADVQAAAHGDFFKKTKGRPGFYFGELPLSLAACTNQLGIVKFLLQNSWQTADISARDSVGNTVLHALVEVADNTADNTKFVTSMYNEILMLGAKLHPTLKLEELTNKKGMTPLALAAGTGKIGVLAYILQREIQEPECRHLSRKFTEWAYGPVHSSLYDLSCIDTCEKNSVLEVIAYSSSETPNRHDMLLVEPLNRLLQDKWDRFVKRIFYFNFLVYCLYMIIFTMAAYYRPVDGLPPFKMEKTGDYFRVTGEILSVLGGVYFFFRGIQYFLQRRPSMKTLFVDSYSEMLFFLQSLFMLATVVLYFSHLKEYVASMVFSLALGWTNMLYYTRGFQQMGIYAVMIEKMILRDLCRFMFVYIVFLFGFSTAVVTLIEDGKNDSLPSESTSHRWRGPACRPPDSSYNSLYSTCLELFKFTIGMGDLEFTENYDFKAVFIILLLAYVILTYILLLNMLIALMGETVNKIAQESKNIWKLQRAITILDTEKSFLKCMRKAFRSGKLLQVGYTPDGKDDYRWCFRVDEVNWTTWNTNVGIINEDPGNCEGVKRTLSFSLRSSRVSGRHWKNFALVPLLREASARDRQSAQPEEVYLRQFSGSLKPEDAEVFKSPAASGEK

| SMILES | inhibition of calcium ion influx induced by capsaicin stimulation |
| --- | --- |
| CC(C)(C)/C=C/c1ccc(C(=O)NCCc2ccccc2Cl)cc1 [Compound 11] | ++++ (compound exhibited 75% or greater inhibition of calcium ion influx induced by capsaicin stimulation) |
| CC(C)(C)/C=C/c1ccc(C(=O)NC2CCC(C(C)(C)C)CC2)cc1 (centres unmarked) [Compound 12] | + (compound exhibited 0-25% inhibition of calcium ion influx induced by capsaicin stimulation) |
| CC(C)(C)/C=C/c1ccc(C(=O)NCc2ccccc2)cc1 [Compound 13] | + (compound exhibited 0-25% inhibition of calcium ion influx induced by capsaicin stimulation) |
| CCCNC(=O)c1ccc(/C=C/C(C)(C)C)cc1 [Compound 14] | + (compound exhibited 0-25% inhibition of calcium ion influx induced by capsaicin stimulation) |
| COc1ccc(NC(=O)c2ccc(/C=C/C(C)(C)C)cc2)cc1 [Compound 15] | + (compound exhibited 0-25% inhibition of calcium ion influx induced by capsaicin stimulation) |
| CC(C)(C)/C=C/c1ccc(C(=O)NCC2CCCO2)cc1 (centres unmarked) [Compound 16] | + (compound exhibited 0-25% inhibition of calcium ion influx induced by capsaicin stimulation) |
| CC(C)(C)/C=C/c1ccc(C(=O)NCc2ccc3c(c2)OCO3)cc1 [Compound 17] | + (compound exhibited 0-25% inhibition of calcium ion influx induced by capsaicin stimulation) |
| CC(C)(C)/C=C/c1ccc(C(=O)NCCc2ccc(S(C)(=O)=O)cc2)cc1 [Compound 20] | + (compound exhibited 0-25% inhibition of calcium ion influx induced by capsaicin stimulation) |
| COc1ccc(CCNC(=O)c2ccc(/C=C/C(C)(C)C)cc2)cc1OC [Compound 24] | + (compound exhibited 0-25% inhibition of calcium ion influx induced by capsaicin stimulation) |
| CC(C)(C)/C=C/c1ccc(C(=O)NC(C)(C)c2ccccc2)cc1 [Compound 26] | + (compound exhibited 0-25% inhibition of calcium ion influx induced by capsaicin stimulation) |
| CC(C)(C)/C=C/c1ccc(C(=O)NCc2cccs2)cc1 [Compound 29] | + (compound exhibited 0-25% inhibition of calcium ion influx induced by capsaicin stimulation) |
| CC(C)(C)/C=C/c1ccc(C(=O)Nc2ccccc2C#N)cc1 [Compound 30] | ++ (compound exhibited 25-50% inhibition of calcium ion influx induced by capsaicin stimulation) |
| COc1ccccc1NC(=O)c1ccc(/C=C/C(C)(C)C)cc1 [Compound 31] | + (compound exhibited 0-25% inhibition of calcium ion influx induced by capsaicin stimulation) |
| CC(C)(C)/C=C/c1ccc(C(=O)Nc2ccccc2Cl)cc1 [Compound 33] | + (compound exhibited 0-25% inhibition of calcium ion influx induced by capsaicin stimulation) |
| COc1ccc(CNC(=O)c2ccc(/C=C/C(C)(C)C)cc2)cc1OC [Compound 35] | + (compound exhibited 0-25% inhibition of calcium ion influx induced by capsaicin stimulation) |
| COc1ccc(NC(=O)c2ccc(/C=C/C(C)(C)C)cc2)cc1Cl [Compound 37] | + (compound exhibited 0-25% inhibition of calcium ion influx induced by capsaicin stimulation) |
| CC(C)(C)/C=C/c1ccc(C(=O)Nc2cccc(C#N)c2)cc1 [Compound 38] | + (compound exhibited 0-25% inhibition of calcium ion influx induced by capsaicin stimulation) |
| CC(C)(C)/C=C/c1ccc(C(=O)Nc2ccccc2CCO)cc1 [Compound 39] | ++++ (compound exhibited 75% or greater inhibition of calcium ion influx induced by capsaicin stimulation) |
| CC(C)(C)/C=C/c1ccc(C(=O)Nc2ccc(C(C)(C)C)cc2)cc1 [Compound 40] | +++ (compound exhibited 50-75% inhibition of calcium ion influx induced by capsaicin stimulation) |
| CC(C)c1ccc(NC(=O)c2ccc(/C=C/C(C)(C)C)cc2)cc1 [Compound 41] | ++ (compound exhibited 25-50% inhibition of calcium ion influx induced by capsaicin stimulation) |
| CCCCc1ccc(NC(=O)c2ccc(/C=C/C(C)(C)C)cc2)cc1 [Compound 42] | + (compound exhibited 0-25% inhibition of calcium ion influx induced by capsaicin stimulation) |
| CC(C)(C)/C=C/c1ccc(C(=O)Nc2ccc(C3CCCCC3)cc2)cc1 [Compound 43] | + (compound exhibited 0-25% inhibition of calcium ion influx induced by capsaicin stimulation) |
| COc1cc(NC(=O)c2ccc(/C=C/C(C)(C)C)cc2)cc(C(F)(F)F)c1 [Compound 44] | ++++ (compound exhibited 75% or greater inhibition of calcium ion influx induced by capsaicin stimulation) |
| Cc1ccc2[nH]c(=O)c3ccc(/C=C/C(C)(C)C)cc3c2c1 [Compound 45] | ++++ (compound exhibited 75% or greater inhibition of calcium ion influx induced by capsaicin stimulation) |

| SMILES | inhibition of calcium ion influx induced by capsaicin stimulation |
| --- | --- |
| CC(C)(C)/C=C/c1ccc(C(=O)Nc2ccc3c(c2)OCO3)cc1 [Compound 47] | ++++ (compound exhibited 75% or greater inhibition of calcium ion influx induced by capsaicin stimulation) |
| Cc1cc(C)nc(NC(=O)c2ccc(/C=C/C(C)(C)C)cc2)c1 [Compound 48] | ++ (compound exhibited 25-50% inhibition of calcium ion influx induced by capsaicin stimulation) |
| CC(C)(C)/C=C/c1ccc(C(=O)NCc2ccncc2)cc1 [Compound 49] | ++++ (compound exhibited 75% or greater inhibition of calcium ion influx induced by capsaicin stimulation) |
| CC(C)(C)/C=C/c1ccc(C(=O)Nc2ccncc2)cc1 [Compound 52] | ++++ (compound exhibited 75% or greater inhibition of calcium ion influx induced by capsaicin stimulation) |
| CC(C)(C)/C=C/c1ccc(C(=O)Nc2cccnc2)cc1 [Compound 53] | ++++ (compound exhibited 75% or greater inhibition of calcium ion influx induced by capsaicin stimulation) |
| CC(C)(C)/C=C/c1ccc(C(=O)Nc2cc[nH]n2)cc1 [Compound 54] | + (compound exhibited 0-25% inhibition of calcium ion influx induced by capsaicin stimulation) |
| CC(C)(C)/C=C/c1ccc(C(=O)Nc2nccs2)cc1 [Compound 55] | + (compound exhibited 0-25% inhibition of calcium ion influx induced by capsaicin stimulation) |
| CC(C)(C)/C=C/c1ccc(C(=O)NC2CCC(Cc3ccccc3)CC2)cc1 (centres unmarked) [Compound 56] | + (compound exhibited 0-25% inhibition of calcium ion influx induced by capsaicin stimulation) |
| CC(C)(C)/C=C/c1ccc(C(=O)NCCN2CCNCC2)cc1 [Compound 60] | + (compound exhibited 0-25% inhibition of calcium ion influx induced by capsaicin stimulation) |
| CN(C)c1cccc(NC(=O)c2ccc(/C=C/C(C)(C)C)cc2)c1 [Compound 61] | ++++ (compound exhibited 75% or greater inhibition of calcium ion influx induced by capsaicin stimulation) |
| CCN(CC)c1ccc(NC(=O)c2ccc(/C=C/C(C)(C)C)cc2)cc1 [Compound 62] | ++++ (compound exhibited 75% or greater inhibition of calcium ion influx induced by capsaicin stimulation) |
| Cc1ccnc(NC(=O)c2ccc(/C=C/C(C)(C)C)cc2)c1 [Compound 64] | + (compound exhibited 0-25% inhibition of calcium ion influx induced by capsaicin stimulation) |
| CN1CCC(NC(=O)c2ccc(/C=C/C(C)(C)C)cc2)CC1 [Compound 65] | + (compound exhibited 0-25% inhibition of calcium ion influx induced by capsaicin stimulation) |
| CC(C)(C)/C=C/c1ccc(C(=O)Nc2ccc3[nH]ccc3c2)cc1 [Compound 66] | ++ (compound exhibited 25-50% inhibition of calcium ion influx induced by capsaicin stimulation) |
| CC(C)(C)/C=C/c1ccc(C(=O)Nc2ccncn2)cc1 [Compound 67] | + (compound exhibited 0-25% inhibition of calcium ion influx induced by capsaicin stimulation) |
| Cc1cccnc1NC(=O)c1ccc(/C=C/C(C)(C)C)cc1 [Compound 68] | +++ (compound exhibited 50-75% inhibition of calcium ion influx induced by capsaicin stimulation) |
| CC(C)(C)/C=C/c1ccc(C(=O)Nc2ccc(Br)cn2)cc1 [Compound 69] | + (compound exhibited 0-25% inhibition of calcium ion influx induced by capsaicin stimulation) |
| CC(C)(C)/C=C/c1ccc(C(=O)Nc2ccc(C(F)(F)F)cn2)cc1 [Compound 70] | + (compound exhibited 0-25% inhibition of calcium ion influx induced by capsaicin stimulation) |
| CC(C)(C)/C=C/c1ccc(C(=O)Nc2ncc(C(F)(F)F)cc2Cl)cc1 [Compound 71] | + (compound exhibited 0-25% inhibition of calcium ion influx induced by capsaicin stimulation) |
| CCc1ccnc(NC(=O)c2ccc(/C=C/C(C)(C)C)cc2)c1 [Compound 72] | + (compound exhibited 0-25% inhibition of calcium ion influx induced by capsaicin stimulation) |
| CC(C)(C)/C=C/c1ccc(C(=O)Nc2ccc(Cl)nc2)cc1 [Compound 74] | +++ (compound exhibited 50-75% inhibition of calcium ion influx induced by capsaicin stimulation) |
| COc1ccc(NC(=O)c2ccc(/C=C/C(C)(C)C)cc2)cn1 [Compound 75] | ++ (compound exhibited 25-50% inhibition of calcium ion influx induced by capsaicin stimulation) |
| CC(C)(C)/C=C/c1ccc(C(=O)Nc2ccnc(Cl)c2)cc1 [Compound 76] | ++++ (compound exhibited 75% or greater inhibition of calcium ion influx induced by capsaicin stimulation) |
